According to US20050249697A1, “Compositions and methods for the inhibition of bone growth and resorption” (priority 2003, published 2005):
Like-named read-outs stand apart in the source and are kept apart here.

Key:
[1] = cited from earlier work
[2] = in vivo; cited from earlier work
[3] = Plasma diflunisal in rats after subcutaneous polydiflunisal microspheres or oral diflunisal; type: in vivo; conditions: single oral dose
Source text: Processes for making nanoparticle formulations are also known in the art, and need not be fully described in this patent. The surface eroding property of polymers such as polydiflunisal makes for solid, non-porous particles, e.g. nano- and micro-spheres, useful for sustained drug delivery, and their release duration may be controlled by varying particle diameter, e.g. larger microparticles biodegrade more slowly than smaller ones. Nano- and microparticles for pharmaceutical formulations may be designed to deliver an agent(s) or compound(s) incorporated into the monomer, oligomer or polymer backbone and optionally an agent(s) blended, appended to, or dispersed in the polymer. […] Microparticle formulations of about 1, 2, 5, 7.5, 10, 25, 50 to about 10, 15, 30, 50, 75, 100, 250 μm are suitable for use in a pharmaceutical, veterinary or other type of formulations. Similarly, nanoparticle formulations may be administered for various applications, having a particle size about 1, 2, 5, 10 to about 15, 20, 30, 50, 100, 250, 500 nm, or various ranges between any two of these values. […]

[4] = cited from earlier work; for Plasma Levels: Clinical Use, Anti-Inflammatory Effectiveness; for Plasma half-life: in vivo
[5] = system: Long Bone Critical Size Defect; experiment: Long bone critical size defect model: bone formation and resorption; type: in vivo, Sprague Dawley retired breeder male rats; conditions: implant of polymer microspheres containing ≧0.5 g salicylic acid/cm^3 in a femur
Source text: Nineteen (19) Sprague Dawley retired breeder male rats were employed in this experiment. In each animal, a 5 mm mid-shaft defect was created using an oscillating saw. The limbs were then stabilized using a custom 4-hole polymer plate and screws. In two groups of 6 rats each, the defects were filled with either the homopolymer or the copolymer. The remaining 7 rats had their defects filled with a collagen sponge to serve as controls. An equal number of animals from each group was sacrificed at 4 and 8 weeks post surgery. The only exception was that four control rats were used in the 8-week group. The defect sites were radiographed using a Hewlett-Packard Faxitron model 43804 and high resolution mammography film every 2 weeks until sacrifice. At term, the limbs were collected and prepared for non-decalcified histology. Mid-sagittal ground sections were prepared and stained using Sanderson's Rapid Bone Stain and Stevenel's Blue. New bone formed between inner-most fixation screws was measured on 2 slides per animal and averaged. Bone resorption, or loss, was also measured by approximating the original contours of the cortices, and measuring the difference in area relative to the remaining bone.

[6] = cited from earlier work; remark: listed apart in the source
[7] = cited from earlier work; remark: listed apart in the source

## O=C(O)c1cc(-c2ccc(F)cc2F)ccc1O [Diflunisal, 5-(2,4-difluoro-phenyl) salicylic acid]
[1]
  Water Solubility: Very Low
[2]
  LD50: 439 mg/kg
[3]
  plasma drug level after dosing: declined rapidly
[4]
  Plasma Levels: 50 to 190 µg/mL
  Plasma half-life: 8 to 12 h
[4]; Metabolism
  No. Metabolites: 2
  Where Metabolized: Liver, Intestine

## O=C(O)c1ccccc1O [Salicylic Acid]
[5]
  effect of local delivery at site of bone defect or injury: prevents new bone growth, degradation and resorption
[1]
  Water Solubility: High
[4]
  Plasma Levels: 150 to 300 µg/mL
  Plasma half-life: 2.5 h

## O=C(O)CCCCCCCCC(=O)O [Sebacic Acid]
[6]; oral
  Rat Oral LD50: 14,470 mg/kg

## O=C(O)CCC(=O)O [Succinic Acid]
[6]; in vivo, po
  Rat Oral LD50: 8,530 mg/kg

## CN1CC[C@]23c4c5ccc(O)c4O[C@H]2[C@@H](O)C=C[C@H]3[C@H]1C5 [morphine]
[7]; 1 mg injected into chronically-inflamed gum tissue
  pain relief: profound pain relief
[7]; intra-articular injection of 3 mg in RA patients
  pain relief: pain relief similar to that of 4 mg dexamethasone
